Laboratory results reported in US11628146B2, “Estrogen receptor ligand treatment for neurodegenerative diseases” (The Regents of the University of California, priority 2014, dated 2023).
Entries after “also recorded” stand apart in the source; their conditions may differ.

Assays:
EAE in NOD mice = assay: Standard EAE clinical score (0-5 scale), MOG-induced EAE, NOD mice; type: in vivo, mouse; parameters: key to Standard EAE Score: n.s. = not significant; *p < 0.05; ***p = 0.0004; ****p < 0.0001; n.i. = not informative; conditions: for Standard EAE Score: significance vs vehicle
From the text: Animals. C57BL/6 and NOD mice 8 weeks old were purchased from Jackson Laboratories (Bar Harbor, Me.). Animals were maintained under environmentally controlled conditions in a 12-hour light/dark cycle with access to food and water ad libitum. All procedures were done in accordance with the guidelines of the National Institutes of Health and the Chancellor's Animal Research Committee of the University of California, Los Angeles Office for the Protection of Research Subjects.
Reagents. AC-186 was dissolved in either Miglyol 812N liquid oil (Sasol North America) or sesame oil (Sigma Aldrich) as following concentration; 1.5 mg/mL for 3 mg/kg group, 5 mg/mL for 10 mg/kg group, and 15 mg/mL for 30 mg/kg group. Diarylpropionitrile (DPN, Tocris Biosciences) was dissolved in 10% molecular-grade ethanol and diluted with 90% of either Miglyol 812N liquid oil or sesame oil.
EAE and Treatments. Animals were injected subcutaneously with Myelin Oligodendrocyte Glycoprotein (MOG), amino acids 35-55 (200 μg/animal, American Peptides), emulsified in complete Freund's adjuvant (CFA) and supplemented with Mycobacterium tuberculosis H37ra (300 μg/animal, Difco Laboratories), over two sites drained by left inguinal and auxiliary lymph nodes in a total volume of 0.1 ml/mouse. One week later, a booster immunization was delivered over contra lateral lymph nodes. Pertussis toxin (500 ng/mouse) (List Biological Laboratories, Inc.) was injected intraperitoneally on days 0 and 2. Animals were monitored daily for EAE signs based on a standard EAE 0-5 scale scoring system: 0—healthy, 1—complete loss of tail tonicity, 2—loss of righting reflex, 3—partial paralysis, 4—complete paralysis of one or both hind limbs, and 5—moribund. Animals received 0.05 ml of either of 1.5, 5, 15 mg/mL AC-186, vehicle (sesame oil or Miglyol 812N liquid oil), or DPN (8 mg/kg/day) via subcutaneous injections every other day. Animals were treated with AC-186 or vehicle after EAE induction. Specifically, treatment was initiated at the first clear signs of clinical disease (EAE day 13-15), and continued to the endpoint of the experiment.

[1] = test system: female C57BL/6 mice with EAE; assay: In vivo longitudinal MRI of brain volumes in EAE; parameters: species or system mouse
Method: MRI Acquisition. Mice were anesthetized with isofluorane and their heads secured with bite and ear bars. Respiration rate was monitored and the mice were maintained at 37° C. using a circulating water pump. In vivo magnetic resonance imaging was performed using a 200 mm horizontal bore 7.0 T Bruker imaging spectrometer with a micro-imaging gradient insert with a maximum gradient strength of 100 G/cm and 30 mm birdcage RF coil (Bruker Instruments, Billerica, Mass.). An actively decoupled quadrature surface coil array was used for signal reception and a 72-mm birdcage coil was used for transmission. Images were acquired and reconstructed using ParaVision 5.1 software. Imaging parameters were as follows: rapid-acquisition with relaxation enhancement (RARE) sequence, matrix dimensions=256×128×64; field of view=3.84 cm×1.92 cm×0.96 cm; repetition time (TR)=3500 ms; apparent time to echo (apparent TE)=32 ms; echo train length=16; total scan time=37 mins. Spatial resolution was 150 μm^3 per voxel.
MRI Analysis. Images were skull-stripped using the Brain Surface Extractor (BSE) and residual non-brain signal was removed by a single operator manually editing the masks using BrainSuite 11a and bias-field inhomogeneities removed using the N3 correction. After inhomogeneity correction, a minimum deformation atlas (MDA) was produced. Images were spatially and intensity normalized to the MDA using a rigid-body transformation and an intensity rescaling cost function in Alignlinear (AIR). This process permits the comparison of images in a standard space correcting for both gross positional and intensity differences, yet preserving anatomically significant local changes. Following creation of this atlas, cerebral cortices and cerebella were manually labeled on the atlas. The labels were then warped onto the individual spatially normalized images to produce standardized estimates of gray matter volumes in individual subjects. All automated image processing was performed using the LONI Pipeline Processing Environment on an 8-processor core Mac Pro computer (Apple, Cupertino, Calif.).
Cerebral cortex and cerebellum labels were based on the Mouse Atlas Project 2003 mouse brain atlas. […] Importantly, this label contained the somatosensory regions (primary and secondary) and the motor cortex (primary and secondary). Additional anatomical information was obtained from the Franklin and Paxinos mouse brain atlas (Franklin and Paxinos, 2008).
Statistics. Global and regional brain volume changes in EAE mice and control animals were compared with repeated measures ANOVAs using SPSS 22 (IBM, Armonk, N.Y.). […] Regression analysis and Welch's t-tests were performed in Excel 2011 (Microsoft, Redmond, Wash.). All results are presented as mean±standard deviation.

[2] = 30 mg/kg every other day in miglyol, d0, d30, d60, vs vehicle-treated EAE

For `Oc1ccc(C2(c3ccccc3F)CCC(F)(F)CC2)cc1` [AC-186], the “Standard EAE Score” value (EAE in NOD mice; NOD F, AC186 10 mg/kg, miglylol vehicle) was “**** (****p < 0.0001)”, the “Standard EAE Score” value (EAE in NOD mice; NOD F, AC186 30 mg/kg, miglylol vehicle) was “**** (****p < 0.0001)” and the “Standard EAE Score” value (EAE in NOD mice; NOD F, AC186 30 mg/kg, sesame vehicle) was “n.s”. The “Standard EAE Score” value (EAE in NOD mice; NOD M, AC186 10 mg/kg, miglylol vehicle) was “n.s”, the “Standard EAE Score” value (EAE in NOD mice; NOD M, AC186 30 mg/kg, miglylol vehicle) was “**** (****p < 0.0001)” and the EAE score (EAE in NOD mice; NOD females, 10 mg/kg in miglyol, vs vehicle, 10 mg/kg) was “improved EAE scores; also recorded: better EAE scores”. For the same compound, the EAE score (EAE in NOD mice; NOD females, 30 mg/kg in miglyol, vs vehicle, 30 mg/kg) was “improved EAE scores; also recorded: better EAE scores”, the EAE score (EAE in NOD mice; NOD females, high dose AC-186 in sesame oil carrier) was “did not ameliorate EAE scores; also recorded: no protection was observed” and the EAE score (EAE in NOD mice; NOD males, 10 mg/kg in miglyol, vs vehicle) was “not”. For the same compound, the EAE score (EAE in NOD mice; NOD males, 30 mg/kg in miglyol, vs vehicle, 30 mg/kg) was “improved EAE scores; also recorded: ameliorated”, the “Cerebellar atrophy (volume loss)” value [1, 2] was “decreased the amount of volume loss; also recorded: less cerebellar atrophy” and the Cerebral cortex atrophy [1, 2] was “atrophy rates were decreased; also recorded: less atrophy in the cerebral cortex”. The “Whole brain atrophy (whole brain volume decrease over time)” value [1, 2] was “significantly smaller; also recorded: less brain atrophy”, the “Volume of the whole cerebellum” value ([1]; AC-186 30 mg/kg treated EAE mice, d60, mean, SD 1.1 mm^3) was 51.8 mm^3 and the “Volume of the cerebral cortex” value ([1]; AC-186 30 mg/kg treated EAE mice, d60, mean, SD 1.6 mm^3) was 70.8 mm^3. The “Volume of the whole brain” value ([1]; AC-186 30 mg/kg treated EAE mice, d60, mean, SD 7.0 mm^3) was 483 mm^3, the “Difference in cerebellum volume vs vehicle treated EAE mice” value ([1]; d60, vehicle 50.0 mm^3) was 3.5% and the “Difference in cerebral cortex volume vs vehicle treated EAE mice” value ([1]; d60, vehicle 68.9 mm^3) was 5.0%. The “Difference in whole brain volume vs vehicle treated EAE mice” value ([1]; d60, vehicle 478 mm^3) was 2.7%.
